According to patent US10695450B2, “Synthesis of a radioactive agent composition” (LABORATOIRES CYCLOPHARMA, priority 2016, dated 2020):

Assay: Radiochemical purity of [^18F]FES stock solution during storage (radiolysis stability)
Format: physicochemical
Details: for Radio-chemical purity after 10 h storage: sodium ascorbate in purification and formulation (0.45% m/v)
Description: Radiochemical purity is the ratio of the radioactivity of the radionuclide agent under chemical form on the total radioactivity of this same radionuclide. Radiochemical purity of the [^18F]FES stock solution is measured. […]

Radio-chemical purity (Example 2: sodium ascorbate during purification only, none in final solution, 250 GBq 18-Fluorine, time of storage 0 hours (end of synthesis)): 99.3%
Radio-chemical purity (Example 2: sodium ascorbate during purification only, none in final solution, 250 GBq 18-Fluorine, time of storage 4 hours): 95%
Radio-chemical purity (Example 2: sodium ascorbate during purification only, none in final solution, 250 GBq 18-Fluorine, time of storage 8 hours): 93%
Radio-chemical purity (Example 2: sodium ascorbate during purification only, none in final solution, 250 GBq 18-Fluorine, time of storage 10 hours): 92%
Radio-chemical purity after 10 h storage (Example 3, batch number 1, 79 GBq 18-Fluorine): 98.0%
Radio-chemical purity after 10 h storage (Example 3, batch number 2, 99 GBq 18-Fluorine): 99.0%
Radio-chemical purity after 10 h storage (Example 3, batch number 3, 164 GBq 18-Fluorine): 96.7%
Radio-chemical purity after 10 h storage (Example 3, batch number 4, 195 GBq 18-Fluorine): 97.1%
Radio-chemical purity (Example 4: synthesis in the presence of sodium ascorbate, 164 GBq 18-Fluorine, time of storage 0 hours (end of synthesis)): 98.0%
Radio-chemical purity (Example 4: synthesis in the presence of sodium ascorbate, 164 GBq 18-Fluorine, time of storage 5 hours): 96.8%
Radio-chemical purity (Example 4: synthesis in the presence of sodium ascorbate, 164 GBq 18-Fluorine, time of storage 10 hours): 96.7%
Decrease of radiochemical purity after 10 hours of storage (synthesized in the presence of sodium ascorbate (Example 4, Table 4)): 1.3%
Decrease of radiochemical purity after 10 hours of storage (synthesized without antioxidant (Example 2, Table 2)): 7.3%
Structure (SMILES): C[C@]12CC[C@@H]3c4ccc(O)cc4CC[C@H]3C1C[C@@H]([18F])[C@@H]2O (stereo partly drawn) [[^18F]FES, 16α-[^18F]fluoro-17β-estradiol]
